The source made the active and inactive calls.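 How the source made its calls: active means over 75% inhibition of phospholipid synthesis and over 75% inhibition of fatty acid synthesis; inactive means the rest.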

Experimental findings from PubChem BioAssay AID1347132 are described below.

For the assay, the system named is animal cells, 32Pi/[3H]acetate lipid labeling, 3 h. The assay is described as follows: lipid synthesis blockade by radiolabel incorporation – cell-based, 32Pi and [3H]acetate labeling (AID 1347132).

As to `CC(C)(C)c1cc(/C=C(\C#N)C(N)=S)cc(C(C)(C)C)c1O`, the result was inactive. Also, the result (listed dose 0.1 µM) was inactive. For the same compound, the outcome (listed dose 0.3 µM) was inactive. For the same compound, under “listed dose 1 µM”, the outcome was inactive. Moreover, the result (listed dose 3 µM) was inactive. Besides, for the setting “listed dose 10 µM”, the outcome was active.
